Data from US20260193149A1, “[…] USEFUL MINERAL AMINO ACID COMPLEXES” (Statera Ag, LLC, priority 2022, published 2026).
Where “and” joins values, the source holds several entries; their conditions need not be identical. Equal values may be shown once.

Tests used:
corn [1] = experiment: Boron absorption into corn leaf after foliar application, growth stage V5 (Example 4)
Experimental: Each solution was applied independently of one another at these rates, and the applications emulated commercial application conditions, with 30-inch spacings. The test solutions were applied to three different fields to allow for data replication. The corn was at growth stage V5 during the test. Each test solution was evenly applied using a portable foliar applicator ([…] M18 sprayer with a four-gallon tank). Application time per row was recorded to allow for the calculation of an average application rate of the applicator. Any remaining application solution was weighed to allow for the exact calculation of applied solution per acre (converted below to ounces per acre). The solution application rates are reported below in Table 11 and boron application rates are reported below in Table 12. Applications were done in the heat of the day (96° F.), with minimal wind to preclude drift. Control strips for each product at both application rates were identified, and tissue samples from the control strips were collected to reflect an application rate of 0.00 ounces of product per 68 ounces of water.
Tissues were collected after two days using standard tissue collection procedures. Twelve top collar leaves were collected per row. The leaf samples were placed in paper bags and sent to a commercial lab for leaf mineral analysis using ICP-AA.
The application rates reported above Table 11 were adjusted by the concentration of the applied product so that the data could be compared on an equivalent basis, which are reported in Table 12. Tissue boron was regressed against the adjusted applied rates using the Fit Y×X model of SAS JMP (v. 15.0). The Experimental Unit was Field.
Five chemical compounds containing boron were evaluated. The slope of the line was defined according to the following equation: […]

corn [2] = experiment: Boron absorption into corn leaf after foliar application, growth stage V7 (Example 5); type: in vivo; conditions: leaves collected after two days
Experimental: The same procedure of Example 4 was followed for this Example, and the same application solutions at rate 2 were used and applied to three separate fields of corn at growth stage V7.
Twelve top collar leaves were collected per row.
Tissue boron data were analyzed using the Fit Y×X module of SAS JMP (v. 15.0). The tissue data were compared using the Oneway Analysis option. Means for boric acid and boron lysinate were separated using the Student's t-test.

[3] = corn V5, foliar application, top collar leaves collected after two days, slope of tissue boron vs applied boron

Row | Compound | B Absorption, ppm/oz applied B (corn [1]; corn, in vivo, 2 days) [ppm/oz applied B] | increase of corn tissue boron for every ounce of boron applied (corn [1]; corn, in vivo, 2 days) [ppm] | boron absorption greater than boric acid (corn [1]; corn V5, Example 4) | increase of corn tissue boron for every ounce of boron applied (corn [1]; corn V5, Example 4, per ounce applied boron) [ppm] | B Absorption, ppm/oz applied B (corn [1]; [3]) [ppm/oz applied B] | Boron Absorption, ppm/oz B (corn [2]) | Boron Absorption, ppm/oz B (corn [2]; listed as boron lysinate) [ppm/oz B] | decrease of boron absorbed into leaf tissue compared to boric acid (corn [1]; corn V5, Example 4) [ppm]
1 | OB(O)O [Boric acid, boric acid, reference compound] | 4.58 | 4.58 |  |  |  |  |  | 
2 | boron lysinate |  |  | 3.92 ppm and 3.08 ppm | 7.66 | 7.66 | 13.13 ppm/oz B and 13.13^b ppm/oz B | 13.13 | 
3 | ethanolamine boron [Boron ethanolamine, reference compound] |  |  |  |  | 4.13 |  |  | 0.45
